Values after ≈ are worked out from the molar mass of the structure shown.
Columns and labels:
[1] = Metabolic stability in mouse microsomes assessed as intrinsic clearance; type: ADME, Microsome; details: read-out: CLH
[2] = Plasma protein binding in dog at 1 uM measured after 6 hrs LC-MS/MS analysis; type: ADME, cell-free, Canis lupus familiaris; details: read-out: PPB (converted)
[3] = Permeability across apical to basolateral side in human Caco-2 cells at 10 uM incubated for 2 hrs by LC/MS/MS analysis; type: ADME, cell-based; details: Caco-2, read-out: permeability
[4] = Plasma protein binding in human assessed as unbound fraction at 1 uM measured after 6 hrs LC-MS/MS analysis; type: ADME, cell-free
[5] = Dose normalized AUC in ICR (CD-1) mouse at 2 mg/kg, po or 1 mg/kg, iv after 1 week by LC-MS/MS analysis; type: ADME, organism-based; details: in vivo, 168 h, time 1 weeks
[6] = Dose normalized Cmax in Sprague-Dawley rat at 2 mg/kg, po or 1 mg/kg, iv after 1 week by LC-MS/MS analysis; type: ADME, organism-based; details: in vivo, 168 h, time 1 weeks
[7] = Dissociation constant, pKa of compound; type: physicochemical
[8] = Metabolic stability in human microsomes assessed as intrinsic clearance; type: ADME, Microsome; details: read-out: CLH
[9] = Metabolic stability in dog microsomes assessed as intrinsic clearance; type: ADME, Canis lupus familiaris, Microsome; details: read-out: CLH
[10] = High throughput solubility of the compound in FaSSIF after 16 to 24 hrs by MS/MS analysis; type: physicochemical; details: time 16-24 hrs
[11] = Plasma protein binding in mouse at 1 uM measured after 6 hrs LC-MS/MS analysis; type: ADME, cell-free; details: read-out: PPB (converted)
[12] = Permeability across basolateral to apical side in human Caco-2 cells incubated for 2 hrs by LC/MS/MS analysis; type: ADME, cell-based; details: read-out: permeability
[13] = Dose normalized Cmax in wild type Beagle dog at 2 mg/kg, po or 1 mg/kg, iv after 1 week by LC-MS/MS analysis; type: ADME, organism-based, Canis lupus familiaris; details: in vivo, 168 h, time 1 weeks
[14] = Volume of distribution at steady state in wild type Beagle dog at 2 mg/kg, po or 1 mg/kg, iv after 1 week by LC-MS/MS analysis; type: ADME, organism-based, Canis lupus familiaris; details: in vivo, 168 h, time 1 weeks
[15] = Intrinsic clearance in human hepatocytes measured per 10^6 cells; type: ADME, cell-based, Hepatocyte; details: read-out: CLH
[16] = Plasma clearance in rat; type: ADME, cell-free
[17] = Oral biovailability in Beagle dog at 2 mg/kg, po; type: ADME, organism-based, Canis lupus familiaris; details: in vivo
[18] = Oral bioavailability in Sprague-Dawley rat at 2 mg/kg; type: ADME, organism-based; details: in vivo
Cytochrome P450 3A4 = Cytochrome P450 3A4 (Homo sapiens, UniProt P08684); test: Inhibition of CYP3A4 in human liver microsomes using midazolam as substrate incubated for 10 mins in presence of NADPH by LC-MS/MS analysis; type: ADME, Microsome
Chain of Cytochrome P450 3A4 (P08684 whole entry): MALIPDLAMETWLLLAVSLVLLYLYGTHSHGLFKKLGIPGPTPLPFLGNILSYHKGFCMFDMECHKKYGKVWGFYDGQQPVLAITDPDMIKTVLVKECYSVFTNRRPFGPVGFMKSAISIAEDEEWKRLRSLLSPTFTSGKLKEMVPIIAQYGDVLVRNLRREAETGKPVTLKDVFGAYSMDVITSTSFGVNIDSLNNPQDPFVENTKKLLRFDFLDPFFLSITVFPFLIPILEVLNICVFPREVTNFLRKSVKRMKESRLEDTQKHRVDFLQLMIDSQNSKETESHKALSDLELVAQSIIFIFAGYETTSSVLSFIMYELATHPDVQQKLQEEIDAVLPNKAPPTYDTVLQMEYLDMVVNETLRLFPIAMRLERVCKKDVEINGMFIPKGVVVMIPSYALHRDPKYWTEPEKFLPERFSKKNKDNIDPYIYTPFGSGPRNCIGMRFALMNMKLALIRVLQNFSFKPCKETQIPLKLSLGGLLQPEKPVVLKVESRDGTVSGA

Cytochrome P450 2D6 = Cytochrome P450 2D6 (Homo sapiens, UniProt P10635); test: Inhibition of CYP2D6 in human liver microsomes using bufuralol as substrate incubated for 10 mins in presence of NADPH by LC-MS/MS analysis; type: ADME, Microsome
Chain of Cytochrome P450 2D6 (P10635 whole entry): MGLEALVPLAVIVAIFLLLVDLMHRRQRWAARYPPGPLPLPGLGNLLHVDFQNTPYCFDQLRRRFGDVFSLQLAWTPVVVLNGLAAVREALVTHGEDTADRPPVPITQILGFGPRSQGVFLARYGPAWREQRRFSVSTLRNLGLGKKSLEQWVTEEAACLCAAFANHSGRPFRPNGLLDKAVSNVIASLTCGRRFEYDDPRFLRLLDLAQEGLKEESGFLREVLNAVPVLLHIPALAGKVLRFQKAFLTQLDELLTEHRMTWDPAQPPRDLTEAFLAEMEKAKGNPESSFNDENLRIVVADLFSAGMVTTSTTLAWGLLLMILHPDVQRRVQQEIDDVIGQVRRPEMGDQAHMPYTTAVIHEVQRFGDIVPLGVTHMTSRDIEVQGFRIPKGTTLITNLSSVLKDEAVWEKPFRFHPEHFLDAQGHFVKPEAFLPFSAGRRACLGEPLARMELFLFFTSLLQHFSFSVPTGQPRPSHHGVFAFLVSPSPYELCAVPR

[19] = Terminal half life in Sprague-Dawley rat at 2 mg/kg, po or 1 mg/kg, iv after 1 week by LC-MS/MS analysis; type: ADME, organism-based; details: in vivo, time 1 weeks, read-out: beta t1/2 (converted)
[20] = Plasma clearance in dog; type: ADME, cell-free, Canis lupus familiaris
[21] = Plasma protein binding in human at 1 uM measured after 6 hrs LC-MS/MS analysis; type: ADME, cell-free; details: read-out: PPB (converted)
[22] = Intrinsic clearance in mouse hepatocytes measured per 10^6 cells; type: ADME, cell-based, Hepatocyte; details: read-out: CLH
[23] = Terminal half life in ICR (CD-1) mouse at 2 mg/kg, po or 1 mg/kg, iv after 1 week by LC-MS/MS analysis; type: ADME, organism-based; details: in vivo, time 1 weeks, read-out: beta t1/2 (converted)
Cytochrome P450 2C9 = Cytochrome P450 2C9 (Homo sapiens, UniProt P11712); test: Inhibition of CYP2C9 in human liver microsomes using diclofenac as substrate incubated for 10 mins in presence of NADPH by LC-MS/MS analysis; type: ADME, Microsome
Chain of Cytochrome P450 2C9 (P11712 whole entry): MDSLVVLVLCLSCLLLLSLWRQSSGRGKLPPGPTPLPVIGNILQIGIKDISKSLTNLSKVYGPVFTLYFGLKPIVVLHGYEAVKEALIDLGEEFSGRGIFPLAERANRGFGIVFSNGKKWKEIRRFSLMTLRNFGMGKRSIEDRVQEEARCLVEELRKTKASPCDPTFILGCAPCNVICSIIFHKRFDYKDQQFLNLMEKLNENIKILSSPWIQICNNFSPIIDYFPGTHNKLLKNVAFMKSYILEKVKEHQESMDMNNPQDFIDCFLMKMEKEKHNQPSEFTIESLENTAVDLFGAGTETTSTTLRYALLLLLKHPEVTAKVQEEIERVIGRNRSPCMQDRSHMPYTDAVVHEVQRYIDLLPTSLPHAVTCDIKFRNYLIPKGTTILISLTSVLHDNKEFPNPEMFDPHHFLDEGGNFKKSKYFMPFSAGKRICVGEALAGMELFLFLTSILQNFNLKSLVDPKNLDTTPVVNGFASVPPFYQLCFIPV

[24] = Oral biovailability in ICR (CD-1) mouse at 2 mg/kg, po; type: ADME, organism-based; details: in vivo
[25] = Terminal half life in wild type Beagle dog at 2 mg/kg, po or 1 mg/kg, iv after 1 week by LC-MS/MS analysis; type: ADME, organism-based, Canis lupus familiaris; details: in vivo, time 1 weeks, read-out: beta t1/2 (converted)
[26] = Dose normalized Cmax in ICR (CD-1) mouse at 2 mg/kg, po or 1 mg/kg, iv after 1 week by LC-MS/MS analysis; type: ADME, organism-based; details: in vivo, 168 h, time 1 weeks
[27] = High throughput solubility of the compound at pH 7 after 16 to 24 hrs by MS/MS analysis; type: physicochemical; details: buffer, time 16-24 hrs, read-out: solubility
[28] = Volume of distribution at steady state in Sprague-Dawley rat at 2 mg/kg, po or 1 mg/kg, iv after 1 week by LC-MS/MS analysis; type: ADME, organism-based; details: in vivo, 168 h, time 1 weeks
[29] = High throughput solubility of the compound in SGF after 16 to 24 hrs by MS/MS analysis; type: physicochemical; details: time 16-24 hrs
[30] = High throughput solubility of the compound in FeSSIF after 16 to 24 hrs by MS/MS analysis; type: physicochemical; details: time 16-24 hrs
[31] = Volume of distribution at steady state ICR (CD-1) mouse at 2 mg/kg, po or 1 mg/kg, iv after 1 week by LC-MS/MS analysis; type: ADME, organism-based; details: in vivo, 168 h, time 1 weeks
[32] = Dose normalized AUC in wild type Beagle dog at 2 mg/kg, po or 1 mg/kg, iv after 1 week by LC-MS/MS analysis; type: ADME, organism-based, Canis lupus familiaris; details: in vivo, 168 h, time 1 weeks
[33] = Intrinsic clearance in dog hepatocytes measured per 10^6 cells; type: ADME, cell-based, Canis lupus familiaris, Hepatocyte; details: read-out: CLH
[34] = High throughput solubility of the compound at pH 1 after 16 to 24 hrs by MS/MS analysis; type: physicochemical; details: buffer, time 16-24 hrs
[35] = Dose normalized AUC in Sprague-Dawley rat at 2 mg/kg, po or 1 mg/kg, iv after 1 week by LC-MS/MS analysis; type: ADME, organism-based; details: in vivo, 168 h, time 1 weeks
[36] = Intrinsic clearance in rat hepatocytes measured per 10^6 cells; type: ADME, cell-based, Hepatocyte; details: read-out: CLH
[37] = Plasma protein binding in rat at 1 uM measured after 6 hrs LC-MS/MS analysis; type: ADME, cell-free; details: read-out: PPB (converted)
[38] = Free plasma concentration in Athymic BALB/c nude mouse xenografted with human Karpas-422 cells at 20 mg/kg, po after 12 hrs by HPLC-MS/MS analysis; type: ADME, organism-based; details: in vivo
[39] = Antitumor activity against human Karpas-422 cells xenografted Athymic BALB/c nude mouse assessed as minimum effective dose administered twice a day for 30 days; type: functional; details: KARPAS-422, 720 h, time 30 day, read-out: MED
[40] = biological target: T1, Alpha-2C adrenergic receptor (Homo sapiens, UniProt P18825); test: Inhibition of alpha2c adrenergic receptor (unknown origin)
T1 sequence (P18825 whole entry): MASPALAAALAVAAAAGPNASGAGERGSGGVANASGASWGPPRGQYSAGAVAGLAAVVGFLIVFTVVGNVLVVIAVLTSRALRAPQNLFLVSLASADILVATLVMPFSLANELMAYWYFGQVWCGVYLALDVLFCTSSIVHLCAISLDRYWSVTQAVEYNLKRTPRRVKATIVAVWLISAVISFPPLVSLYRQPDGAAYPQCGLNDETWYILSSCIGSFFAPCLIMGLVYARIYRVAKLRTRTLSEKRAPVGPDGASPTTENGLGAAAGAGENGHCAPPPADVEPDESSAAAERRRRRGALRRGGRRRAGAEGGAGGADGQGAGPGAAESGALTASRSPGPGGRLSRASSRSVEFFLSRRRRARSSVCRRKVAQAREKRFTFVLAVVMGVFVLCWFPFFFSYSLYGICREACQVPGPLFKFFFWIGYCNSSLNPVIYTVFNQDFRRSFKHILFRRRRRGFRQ

[41] = Lipophilicity, logD of the compound at pH 7.4 by LC with tandem MS analysis; type: physicochemical; details: buffer, read-out: logD
KARPAS-422 = test: Antiproliferative activity against human KARPAS-422 cells expressing EZH2 mutant assessed as inhibition of cell growth after 14 days by beckman coulter counting method; type: functional; details: time 14 day
[42] = Metabolic stability in rat microsomes assessed as intrinsic clearance; type: ADME, Microsome; details: read-out: CLH

Compound: COc1cccc(F)c1CNc1ccc(-c2cnc(C)nc2C)c2nncn12
- microsomal CLint [1]: 21 µL/min/mg
- fraction unbound at 6 h, 1 µM [2]: 0.15
- Papp A→B at 2 h, 10 µM [3]: 7.2 ×10⁻⁶ cm/s
- fraction unbound at 6 h, 1 µM [4]: 0.13
- AUC/dose [5]: 1032 nM·h
- Cmax/dose [6]: 387 nM
- pKa [7]: 3.3
- microsomal CLint [8]: 9 µL/min/mg
- microsomal CLint [9]: 10 µL/min/mg
- solubility [10]: 34 µM (≈ 12.9 µg/mL)
- fraction unbound at 6 h, 1 µM [11]: 0.12
- Papp B→A at 2 h [12]: 42 ×10⁻⁶ cm/s
- Cmax/dose [13]: 590 nM
- Vdss [14]: 2.1 L/kg
- hepatocyte CLint [15]: < 2.3 µL/min/1e6 cells
- clearance [16]: 22 mL/min/kg
- bioavailability [17]: 68%
- bioavailability [18]: 109%
- IC50 (Cytochrome P450 3A4): > 20 µM
- IC50 (Cytochrome P450 2D6): > 20 µM
- half-life [19]: 1.1 h
- clearance [20]: 13 mL/min/kg
- fraction unbound at 6 h, 1 µM [21]: 0.13
- hepatocyte CLint [22]: 3.6 µL/min/1e6 cells
- half-life [23]: 2.2 h
- IC50 (Cytochrome P450 2C9): > 20 µM
- bioavailability [24]: 132%
- half-life [25]: 2 h
- Cmax/dose [26]: 288 nM
- solubility [27]: 2.6 µM (≈ 0.984 µg/mL)
- Vdss [28]: 2.4 L/kg
- solubility [29]: 173 µM (≈ 65.5 µg/mL)
- solubility [30]: 86 µM (≈ 32.5 µg/mL)
- Vdss [31]: 7.5 L/kg
- AUC/dose [32]: 2392 nM·h
- hepatocyte CLint [33]: < 2.3 µL/min/1e6 cells
- solubility [34]: > 13000 µM
- AUC/dose [35]: 2127 nM·h
- hepatocyte CLint [36]: 3.2 µL/min/1e6 cells
- fraction unbound at 6 h, 1 µM [37]: 0.1
- Cp(f) [38]: 32 nM
- minimal effective dose [39]: 7 mg/kg
- IC50 [40]: 8.7 µM
- logD [41]: 3.8
- GI50 (KARPAS-422; Homo sapiens, KARPAS-422, 336 h): 6.7 µM
- GI90 (KARPAS-422): 32 µM
- microsomal CLint [42]: 11 µL/min/mg

— ChEMBL document CHEMBL5154826, “Discovery of the Clinical Candidate MAK683: An EED-Directed, Allosteric, and Selective PRC2 Inhibitor for the Treatment of Advanced Malignancies” (J Med Chem, 2022)
